Source: patent US20130061339A1, “METHOD OF DIAGNOSING TRICHOTILLOMANIA AND SIMILAR DISORDERS IN HUMANS AND RODENTS” (Purdue Research Foundation, priority 2011, published 2013)

How the values were obtained:
[1] = tested on: barbering behavior in C57BL/6J mice; assay: barbering in mice after 24 weeks of feed supplemented with NAC; assay type: in vivo, mouse; conditions: NAC 1 g/kg/day in feed, vs mice not treated with NAC, P=0.0152
Excerpt: (§1) Thirty-two female adult C57BL/6J mice (14 barbers and 18 non-barbers) were separated into cages with no barbers, and cages with at least one barber. Cages with no barbers were fed a diet to induce barbering, as per Dufour, et al.. Cages with barbers were fed a regular mouse diet. Half the cages in each group had their feed supplemented with NAC, at a dose of 1 g/kg/day per mouse. Urine was collected at baseline and 24 weeks, to measure: reductive capacity, which reflects the sum of unused antioxidants from the diet, and antioxidants produced to defend the body. The level of 8 hydroxy-2-deoxyguanosine (8-OH-dG) which measures DNA damage from ongoing oxidative stress was also measured at 24 weeks only. Urine concentration was controlled by measuring creatinine. Six animals provided urine too dilute for analysis. Barbering and patterns of hair loss were recorded every 2 weeks. Data were analyzed using generalized linear model (GLM) and logistic regression using JMP statistical software, available from SAS, Cary N.C.

[2] = standardized reductive capacity of urine after treatment; assay type: in vivo, mouse; conditions: 24 weeks, NAC 1 g/kg/day in feed, mice that were and were not barbers at the start; P=0.0244
Excerpt: as §1

[3] = tested on: trichotillomania patients; conditions: 50 trichotillomania patients, randomized double-blind placebo study [2]; cited from earlier work

## CC(=O)N[C@@H](CS)C(=O)O [NAC, N-acetylcysteine]
[1]; mice that were barbers at the start, regular diet
  proportion of mice barbering after 24 weeks of treatment (curative effect): fewer mice treated with NAC were barbering
[1]; mice that were not barbers at the start, barbering-inducing diet
  proportion of mice barbering after 24 weeks of treatment (preventative effect): fewer mice treated with NAC were barbering
[2]
  standardized reductive capacity of urine after treatment: only increases reductive capacity in healthy mice
[3]
  patients in whom symptoms were reduced: 56%
